Test results published in patent US20110104055A1, “SUBSTITUTED N-ARYL BENZAMIDES AND RELATED COMPOUNDS FOR TREATMENT OF AMYLOID DISEASES AND SYNUCLEINOPATHIES” (priority 2002, published 2011).

What was measured:
Type in all cases: biochemical
[1] = target: T1, Aβ 1-42 fibrils (Homo sapiens, UniProt P05067); assay: Congo red binding assay, Aβ 1-42 fibrils (Example 11); conditions: 3-day incubation
T1 construct: purchased Bachem Inc
Description: (§1) In the Congo red binding assay, the ability of a test compound to alter amyloid (in this case, Aβ) binding to Congo red is quantified. In this assay, Aβ 1-42 and test compounds were incubated for 3 days and then vacuum filtered through a 0.2 μm filter. The amount of Aβ 1-42 retained in the filter was then quantitated following staining of the filter with Congo red. After appropriate washing of the filter, any lowering of the Congo red color on the filter in the presence of the test compound (compared to the Congo red staining of the amyloid protein in the absence of the test compound) was indicative of the test compound's ability to diminish/alter the amount of aggregated and congophilic Aβ.
In one study, the ability of Aβ fibrils to bind Congo red in the absence or presence of increasing amounts of the compounds or EDTA (at Aβ:test compound weight ratios of 1:1, 1:0.1, 1:0.01 or 1:0.001) was determined.

[2] = target: T2, α-synuclein fibrils (Homo sapiens, UniProt P37840); assay: Congo red binding assay, α-synuclein fibrils (Example 12); conditions: 3-day incubation
T2 construct: purchased rPeptide
Description: as §1, with “of a given test compound” for “of a test compound”, “this case, α-synuclein) binding to” for “this case, Aβ) binding to”, “this assay, α-synuclein and test” for “this assay, Aβ 1-42 and test”, “amount of α-synuclein retained in” for “amount of Aβ 1-42 retained in”, “and congophilic α-synuclein.” for “and congophilic Aβ.”
In one study, the ability of α-synuclein fibrils to bind Congo red in the absence or presence of increasing amounts of compounds DC-0051-F1, F2, F3, F4, F5, F6 and EDTA (at α-synuclein:test compound weight ratios of 1:1, 1:0.1, 1:0.01 or 1:0.001) was determined.

[3] = target: T2, α-synuclein fibrils; assay: Thioflavin T fluorometry, disruption of pre-formed α-synuclein fibrils (Example 12); conditions: 3 days; for % Inhibition α-synuclein (result ± S.D.), Thioflavin T fluorometry: 30 μg pre-fibrillized α-synuclein, 37° C.
Description: In this assay, Thioflavin T binds specifically to α-synuclein fibrils, and this binding produces a fluorescence enhancement at 485 nm that is directly proportional to the amount of α-synuclein fibrils present. The higher the fluorescence, the greater the amount of α-synuclein fibrils present (Naki et al, Lab. Invest. 65:104-110, 1991; Levine III, Protein Sci. 2:404-410, 1993; Amyloid: Int. J. Exp. Clin. Invest. 2:1-6, 1995).
In this study, 30 μg of pre-fibrillized α-synuclein (rPeptide) was incubated at 37° C. for 3 days either alone or in the presence of compounds DC-0051-F1, F2, F3, F4, F5, F6 or EDTA (at α-synuclein:test compound weight ratios of 1:1, 1:0.1, 1:0.01 or 1:0.001). Following 3-days of co-incubation, 50 μl of each incubation mixture was transferred into a 96-well microtiter plate containing 150 μl of distilled water and 50 μl of a Thioflavin T solution (i.e. […] Thioflavin T in 250 mM phosphate buffer, pH 6.8). The fluorescence was read at 485 nm (444 nm excitation wavelength) using an ELISA plate fluorometer after subtraction with buffer alone or compound alone, as blank.

[4] = target: T1, Aβ 1-42 fibrils; assay: Thioflavin T fluorometry, disruption of pre-formed Aβ 1-42 fibrils (Example 11); conditions: 30 μg pre-fibrillized Aβ 1-42, 37° C., 3 days
Text: In one study, Thioflavin T fluorometry was used to determine the effects of the compounds, and of EDTA (as a negative control). In this assay Thioflavin T binds specifically to fibrillar amyloid, and this binding produces a fluorescence enhancement at 485 nm that is directly proportional to the amount of amyloid fibrils formed. The higher the fluorescence, the greater the amount of amyloid fibrils formed (Naki et al., Lab. Invest. 65:104-110, 1991; Levine III, Protein Sci. 2:404-410, 1993; Amyloid: Int. J. Exp. Clin. Invest. 2:1-6, 1995).
Following 3-days of co-incubation, 50 μl of each incubation mixture was transferred into a 96-well microtiter plate containing 150 μl of distilled water and 50 μl of a Thioflavin T solution (i.e. 500 mM Thioflavin T in 250 mM phosphate buffer, pH 6.8). The fluorescence was read at 485 nm (444 nm excitation wavelength) using an ELISA plate fluorometer after subtraction with buffer alone or compound alone, as blank.

[5] = Aβ:test compound wt/wt ratio 1:0.001
[6] = Aβ:test compound wt/wt ratio 1:0.01
[7] = Aβ:test compound wt/wt ratio 1:0.1
[8] = Aβ:test compound wt/wt ratio 1:1
[9] = α-synuclein:test compound wt/wt ratio 1:0.001
[10] = α-synuclein:test compound wt/wt ratio 1:0.01
[11] = α-synuclein:test compound wt/wt ratio 1:0.1
[12] = α-synuclein:test compound wt/wt ratio 1:1

T1 sequence (P05067 672-713): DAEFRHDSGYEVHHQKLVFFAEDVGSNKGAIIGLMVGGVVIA

## O=C(Nc1cc(O)c(O)cc1F)c1ccc(O)c(O)c1 [DC-0051-F5, N-(2-fluoro-4,5-dihydroxyphenyl)-3,4-dihydroxybenzamide]
[1]; [5]
  % Inhibition Aβ (result ± S.D.), Congo red binding: 0.0 ± 2.50%
[1]; [6]
  % Inhibition Aβ (result ± S.D.), Congo red binding: 9.8 ± 2.54%
[1]; [7]
  % Inhibition Aβ (result ± S.D.), Congo red binding: 25.7 ± 5.69%
[1]; [8]
  % Inhibition Aβ (result ± S.D.), Congo red binding: 69.9 ± 2.06%
[2]; [9]
  % Inhibition α-synuclein (result ± S.D.), Congo red binding: 0.0 ± 1.01%
[2]; [10]
  % Inhibition α-synuclein (result ± S.D.), Congo red binding: 5.0 ± 5.47%
[2]; [11]
  % Inhibition α-synuclein (result ± S.D.), Congo red binding: 32.7 ± 3.96%
[2]; [12]
  % Inhibition α-synuclein (result ± S.D.), Congo red binding: 69.4 ± 0.13%
[3]; Thioflavin T fluorometry, all concentrations tested
  disruption/disassembly of pre-formed α-synuclein fibrils, in words: dose-dependent disruption/disassembly
[3]; [9]
  % Inhibition α-synuclein (result ± S.D.), Thioflavin T fluorometry: 5.9 ± 10.41%
[3]; [10]
  % Inhibition α-synuclein (result ± S.D.), Thioflavin T fluorometry: 59.0 ± 1.18%
[3]; [11]
  % Inhibition α-synuclein (result ± S.D.), Thioflavin T fluorometry: 94.7 ± 1.70%
[3]; [12]
  % Inhibition α-synuclein (result ± S.D.), Thioflavin T fluorometry: 98.9 ± 0.65%
[4]; [5]
  % Inhibition Aβ (result ± S.D.), Thioflavin T fluorometry: 19.5 ± 1.49%
[4]; [6]
  % Inhibition Aβ (result ± S.D.), Thioflavin T fluorometry: 43.9±2.01%
[4]; [7]
  % Inhibition Aβ (result ± S.D.), Thioflavin T fluorometry: 91.8±0.22%
[4]; [8]
  % Inhibition Aβ (result ± S.D.), Thioflavin T fluorometry: 99.8 ± 0.40%
